The assay has as its target HLA-A2 MHC-I (HLA-A*0204) (Homo sapiens, UniProt P04439, D140Y/D185E/D98H/E176V/E277Q/G131W/G231S/I119V/I121M/I166T/I218V/L300P/L318F/N151K/N90K/P208A/P217A/Q86G/Q94H/R138H/R169H/T345S). The experiment in a line: biochemical.

Peptide text beside a SMILES is read from it.

`CC[C@H](C)[C@H](NC(=O)[C@H](CCC(N)=O)NC(=O)[C@H](CCC(=O)O)NC(=O)[C@H](CCC(N)=O)NC(=O)[C@H](CC(C)C)NC(=O)[C@@H](N)[C@@H](C)O)C(=O)NCC(=O)N[C@@H](Cc1c[nH]c2ccccc12)C(=O)N[C@H](C(=O)O)C(C)C` [8.56mod] (H-TLQEQIGWV-OH) returned a Kd of 42 nM.
Regarding `CC[C@H](C)[C@H](NC(=O)[C@H](CCC(N)=O)NC(=O)[C@H](CCC(=O)O)NC(=O)[C@H](CCC(N)=O)NC(=O)[C@H](CC(C)C)NC(=O)[C@@H](N)[C@@H](C)O)C(=O)NCC(=O)N[C@@H](Cc1c[nH]c2ccccc12)C(=O)N[C@@H](CCSC)C(=O)O` [8.56nat] (H-TLQEQIGWM-OH), binding was characterised by a dissociation constant (Kd) of 245 nM.
Take `CC(C)C[C@H](NC(=O)[C@H](C)N)C(=O)NCC(=O)N1CCC[C@H]1C(=O)N[C@@H](C)C(=O)N[C@@H](C)C(=O)N[C@H](C(=O)N[C@@H](CC(C)C)C(=O)N[C@H](C(=O)O)C(C)C)[C@@H](C)O` [8.64mod] (H-ALGPAATLV-OH): the Kd amounted to 1.3 nM.
Consider `CC(C)C[C@H](NC(=O)[C@H](C)N)C(=O)NCC(=O)N1CCC[C@H]1C(=O)N[C@@H](C)C(=O)N[C@@H](C)C(=O)N[C@H](C(=O)N[C@@H](CC(C)C)C(=O)N[C@@H](CCC(=O)O)C(=O)O)[C@@H](C)O` [8.64nat] (H-ALGPAATLE-OH), for which the Kd worked out at 830 nM.
The molecule `CSCC[C@H](NC(=O)[C@H](CCC(=O)O)NC(=O)[C@H](CCC(=O)O)NC(=O)[C@H](CC(C)C)NC(=O)[C@H](CC(C)C)NC(=O)[C@H](C)N)C(=O)N[C@@H](CCSC)C(=O)N[C@H](C(=O)N[C@H](C(=O)O)C(C)C)[C@@H](C)O` [8.65mod] (H-ALLEEMMTV-OH) registered a Kd of 1.1 nM.
In the case of `CSCC[C@H](NC(=O)[C@H](CCC(=O)O)NC(=O)[C@H](CCC(=O)O)NC(=O)[C@H](CC(C)C)NC(=O)[C@@H](NC(=O)[C@H](C)N)[C@@H](C)O)C(=O)N[C@@H](CCSC)C(=O)N[C@H](C(=O)N[C@@H](C)C(=O)O)[C@@H](C)O` [8.65nat] (H-ATLEEMMTA-OH), binding was put at a Kd of 77 nM. Compared with the last molecule, the Kd is about 70-fold higher.
In the case of `CSCC[C@H](NC(=O)[C@H](CC(C)C)NC(=O)[C@@H](N)CCC(=O)O)C(=O)N[C@H](C(=O)N[C@@H](C)C(=O)N[C@@H](CS)C(=O)N[C@@H](CCC(N)=O)C(=O)NCC(=O)N[C@H](C(=O)O)C(C)C)[C@@H](C)O` [8.66mod] (H-ELMTACQGV-OH), binding was put at a Kd of 3970 nM.
The molecule `CC[C@H](C)[C@H](NC(=O)[C@@H](N)CC(N)=O)C(=O)N[C@@H](Cc1c[nH]c2ccccc12)C(=O)N[C@@H](C)C(=O)N[C@H](C(=O)N[C@@H](Cc1c[nH]cn1)C(=O)N[C@@H](C)C(=O)N[C@@H](CS)C(=O)N[C@H](C(=O)O)C(C)C)[C@@H](C)O` [8.75natV] (H-NIWATHACV-OH) yielded a Kd of 57 nM.
Molecule `CC(C)C[C@H](NC(=O)[C@@H](N)CCCCN)C(=O)N[C@H](C(=O)N1CCC[C@H]1C(=O)N[C@@H](CC(C)C)C(=O)N[C@@H](CS)C(=O)N[C@H](C(=O)N[C@H](C(=O)N[C@H](C(=O)O)C(C)C)[C@@H](C)O)C(C)C)[C@@H](C)O` [8.76mod] (H-KLTPLCVTV-OH) came in with a dissociation constant (Kd) of 43 nM.
`CC[C@H](C)[C@H](NC(=O)[C@H](CO)NC(=O)[C@H](C)NC(=O)[C@H](C)NC(=O)CNC(=O)[C@H](CC(C)C)NC(=O)[C@@H](N)[C@@H](C)O)C(=O)N[C@H](C(=O)N[C@H](C(=O)O)C(C)C)[C@@H](C)O` [8.85mod] (H-TLGAASITV-OH) returned a Kd of 385 nM.
In the case of `CC(C)C[C@H](NC(=O)[C@H](C)N)C(=O)N[C@@H](CCC(=O)O)C(=O)N[C@@H](C)C(=O)N[C@@H](CCC(N)=O)C(=O)N[C@@H](CCC(N)=O)C(=O)N[C@@H](Cc1c[nH]cn1)C(=O)N[C@@H](CC(C)C)C(=O)N[C@H](C(=O)O)C(C)C` [8.88mod] (H-ALEAQQHLV-OH) it was 1.2 nM; in that of `CC[C@H](C)[C@H](NC(=O)[C@H](C)N)C(=O)N[C@@H](CCC(=O)O)C(=O)N[C@@H](C)C(=O)N[C@@H](CCC(N)=O)C(=O)N[C@@H](CCC(N)=O)C(=O)N[C@@H](Cc1c[nH]cn1)C(=O)N[C@@H](CC(C)C)C(=O)N[C@@H](CC(C)C)C(=O)O` [8.88nat] (H-AIEAQQHLL-OH), 850 nM; in that of `CC[C@H](C)[C@H](NC(=O)[C@H](CCCCN)NC(=O)[C@H](CC(C)C)NC(=O)[C@@H](N)Cc1ccc(O)cc1)C(=O)N[C@@H](Cc1ccccc1)C(=O)N[C@H](C(=O)N[C@@H](CCSC)C(=O)N[C@H](C(=O)N[C@H](C(=O)O)C(C)C)[C@@H](C)CC)[C@@H](C)CC` [8.93mod] (H-YLKIFIMIV-OH), 13 nM.
As to `CC[C@H](C)[C@H](NC(=O)[C@H](CCCCN)NC(=O)[C@@H](NC(=O)[C@@H](N)Cc1ccc(O)cc1)[C@@H](C)CC)C(=O)N[C@@H](Cc1ccccc1)C(=O)N[C@H](C(=O)N[C@@H](CCSC)C(=O)N[C@H](C(=O)N[C@H](C(=O)O)C(C)C)[C@@H](C)CC)[C@@H](C)CC` [8.93nat] (H-YIKIFIMIV-OH), binding was characterised by a dissociation constant (Kd) of 24 nM.
Next, `CC(C)C[C@H](NC(=O)[C@@H](N)Cc1ccccc1)C(=O)N[C@@H](CC(N)=O)C(=O)N[C@H](C(=O)N1CCC[C@H]1C(=O)N1CCC[C@H]1C(=O)N[C@@H](CC(C)C)C(=O)N[C@H](C(=O)O)C(C)C)[C@@H](C)O` [8.111mod] (H-FLNTPPLV-OH): 5.6 nM; `CC(C)C[C@H](NC(=O)[C@@H]1CCCN1C(=O)[C@@H]1CCCN1C(=O)[C@@H](NC(=O)[C@H](CC(N)=O)NC(=O)[C@@H](NC(=O)[C@@H](N)Cc1ccccc1)C(C)C)[C@@H](C)O)C(=O)N[C@H](C(=O)O)C(C)C` [8.111nat]: 32 nM; `CC[C@H](C)[C@H](NC(=O)[C@@H]1CCCN1C(=O)[C@H](Cc1ccccc1)NC(=O)[C@H](CC(C)C)NC(=O)[C@@H](N)CC(C)C)C(=O)N[C@@H](CO)C(=O)N1CCC[C@H]1C(=O)N[C@H](C(=O)O)C(C)C` [8.115mod] (H-LLFPISPV-OH): 16.2 nM.
Molecule `CC[C@H](C)[C@H](NC(=O)[C@@H]1CCCN1C(=O)[C@H](CO)NC(=O)[C@@H](NC(=O)[C@@H]1CCCN1C(=O)[C@H](Cc1ccccc1)NC(=O)[C@H](CC(N)=O)NC(=O)[C@@H](N)CC(C)C)[C@@H](C)CC)C(=O)O` [8.115nat] (H-LNFPISPI-OH) gave a Kd of 29 nM.
With `CC[C@H](C)[C@H](NC(=O)CNC(=O)[C@H](CC(C)C)NC(=O)[C@H](C)N)C(=O)N[C@H](C(=O)N[C@@H](CCC(N)=O)C(=O)N[C@@H](C)C(=O)N[C@H](C(=O)O)C(C)C)[C@@H](C)CC` [8.116mod] (H-ALGIIQAV-OH), binding was characterised by a dissociation constant (Kd) of 26 nM.
Next, `CC[C@H](C)[C@H](NC(=O)CNC(=O)[C@H](CC(C)C)NC(=O)[C@H](C)N)C(=O)N[C@H](C(=O)N[C@@H](CCC(N)=O)C(=O)N[C@@H](C)C(=O)N[C@@H](CCC(N)=O)C(=O)O)[C@@H](C)CC` [8.116nat] (H-ALGIIQAQ-OH): 97 nM; `CC(C)C[C@H](NC(=O)[C@H](CCCCN)NC(=O)[C@H](Cc1ccccc1)NC(=O)[C@H](CC(C)C)NC(=O)[C@@H](N)Cc1c[nH]c2ccccc12)C(=O)N[C@H](C(=O)N1CCC[C@H]1C(=O)N[C@H](C(=O)O)C(C)C)C(C)C` [8.121mod] (H-WLFKLVPV-OH): 183 nM; `CC(C)C[C@H](NC(=O)[C@H](CCCCN)NC(=O)[C@H](Cc1ccccc1)NC(=O)[C@H](CS)NC(=O)[C@@H](N)Cc1c[nH]c2ccccc12)C(=O)N[C@H](C(=O)N1CCC[C@H]1C(=O)N[C@H](C(=O)O)C(C)C)C(C)C` [8.121nat] (H-WCFKLVPV-OH): 200 nM.
On to `CC[C@H](C)[C@H](NC(=O)[C@@H]1CCCN1C(=O)[C@@H]1CCCN1C(=O)[C@H](CC(N)=O)NC(=O)[C@H](CC(C)C)NC(=O)[C@@H](N)[C@@H](C)O)C(=O)N1CCC[C@H]1C(=O)N[C@H](C(=O)O)C(C)C` [8.123mod] (H-TLNPPIPV-OH), for which the affinity, expressed as Kd, was 11 nM.
Regarding `CC[C@H](C)[C@H](NC(=O)[C@@H]1CCCN1C(=O)[C@@H]1CCCN1C(=O)[C@H](CC(N)=O)NC(=O)CNC(=O)[C@@H](N)[C@@H](C)O)C(=O)N1CCC[C@H]1C(=O)N[C@H](C(=O)O)C(C)C` [8.123natG] (H-TGNPPIPV-OH), the Kd is 700 nM. Compared with the last molecule, the Kd is about 64-fold higher.
Regarding `CC[C@H](C)[C@H](NC(=O)[C@H](CCC(=O)O)NC(=O)[C@@H]1CCCN1C(=O)[C@H](CC(=O)O)NC(=O)CNC(=O)[C@H](CC(C)C)NC(=O)[C@@H](N)CO)C(=O)N[C@H](C(=O)O)C(C)C` [8.130mod] (H-SLGDPEIV-OH), the Kd came out at 260 nM. This Kd is about 2.7-fold lower than that of the molecule before.
In turn, `CC[C@H](C)[C@H](NC(=O)[C@H](CCC(=O)O)NC(=O)[C@@H]1CCCN1C(=O)[C@H](CC(=O)O)NC(=O)CNC(=O)CNC(=O)[C@@H](N)CO)C(=O)N[C@H](C(=O)O)C(C)C` [8.130nat] (H-SGGDPEIV-OH) yielded a Kd of 950 nM.
Molecule `CC(C)C[C@H](NC(=O)[C@@H](N)Cc1ccccc1)C(=O)NCC(=O)N[C@@H](C)C(=O)N[C@@H](C)C(=O)NCC(=O)N[C@@H](CO)C(=O)N[C@H](C(=O)O)C(C)C` [8.135mod] (H-FLGAAGSV-OH) came in with a Kd of 5 nM.
As to `CC(C)C[C@H](NC(=O)[C@@H](N)Cc1ccccc1)C(=O)NCC(=O)N[C@@H](C)C(=O)N[C@@H](C)C(=O)NCC(=O)N[C@@H](CO)C(=O)N[C@H](C(=O)O)[C@@H](C)O` [8.135nat] (H-FLGAAGST-OH), the dissociation constant (Kd) amounted to 870 nM. Compared with the last molecule, the Kd is about 170-fold higher.
In turn, `CC(C)C[C@H](NC(=O)[C@@H](NC(=O)[C@@H](N)CCCNC(=N)N)[C@@H](C)O)C(=O)N[C@@H](CC(N)=O)C(=O)N[C@@H](C)C(=O)N[C@@H](Cc1c[nH]c2ccccc12)C(=O)N[C@H](C(=O)N[C@@H](CCCCN)C(=O)N[C@H](C(=O)O)C(C)C)C(C)C` [reference compound] (H-RTLNAWVKV-OH) displayed an equilibrium dissociation constant (Kd) of 170 nM.

These data come from patent publication US20040072162A1, “Hiv peptides and nucleic acids encoding them for diagnosis and control of hiv infection” (priority 2000, published 2004).
